Source: patent US20120277211A1, “METHODS AND COMPOSITIONS FOR THE TREATMENT OF PSYCHOTIC DISORDERS THROUGH THE IDENTIFICATION OF THE SULT4A1-1 HAPLOTYPE” (priority 2009, published 2012)
Marks after values point to notes of the source that are not given here.

Assays:
[1] = system: African American schizophrenia patients; experiment: CATIE: change in total PANSS (LOCF) by SULT4A1-1 haplotype status, African Americans; assay type: in vivo, human; details: for Number of individuals with change in total PANSS ≦−20% (responders) / Number of individuals with change in total PANSS ≧−20% (non-responders): LOCF
Description: The design of the CATIE study has been described in detail by others (Lieberman et al., 2005; Stroup et al., 2003). […] A total of 738 subjects consented to provide DNA for genetic study. […] Retrospective genetic analyses, judged to be exempt from human studies requirements by an IRB, were conducted in the current study. All tested patients were studied using well established clinical endpoints comparing baseline, intermediate, and last observation carried forward (LOCF) for the PANSS scores using CATIE data. […] To remove time on drug as a variable for the CATIE trial, analysis was limited to only those patients who were randomized to a different drug following the initial washout period (drug switchers).

[2] = system: Caucasian schizophrenia patients; experiment: CATIE Phase I: change in total PANSS (LOCF) by SULT4A1-1 haplotype status, Caucasians; assay type: in vivo, human; details: for Number of individuals with change in total PANSS ≦−20% (responders) / Number of individuals with change in total PANSS ≧−20% (non-responders) / Responders: CATIE Caucasians, LOCF; for Responders: change in PANSS ≦−20%; for Effect size: olanzapine SULT4A1-1+ vs comparator group / Mean difference (95% CI) in delta PANSS: olanzapine SULT4A1-1+ minus comparator group: comparator = labelled drug in SULT4A1-1+ patients
Excerpt: There are several different metrics for quantifying response in clinical trials of antipsychotic medications. The most commonly used psychometric instrument is the Positive and Negative Syndrome Scale (PANSS), a 30-item semi-quantitative instrument scored by clinical professionals (Kay et al., 1987). The greater the decrease in PANSS score, the better the clinical response. The most direct measure of clinical response is absolute change in PANSS score. In addition to absolute change, the improvement is often reported as a percentage change from baseline PANSS score.
A decrease of at least 20% in total PANSS is one commonly used threshold for response (Leucht et al., 2009).
The design of the CATIE study has been described in detail by others (Lieberman et al., 2005; Stroup et al., 2003). […] A total of 738 subjects consented to provide DNA for genetic study. […] Retrospective genetic analyses, judged to be exempt from human studies requirements by an IRB, were conducted in the current study.
All tested patients were studied using well established clinical endpoints comparing baseline, intermediate, and last observation carried forward (LOCF) for the PANSS scores using CATIE data. LOCF analysis is a commonly used clinical endpoint for clinical trials for neuropsychiatric drugs, with changes in PANSS scores of between negative 20% and negative 30% used as typical endpoints to indicate clinically significant response (Leucht et al., 2009). To remove time on drug as a variable for the CATIE trial, analysis was limited to only those patients who were randomized to a different drug following the initial washout period (drug switchers).
The CATIE clinical data set included baseline PANSS scores based on clinical assessments prior to initiation of the assigned therapy, but following the washout period for any patients previously on antipsychotic medication. Follow up PANSS data for the CATIE trial were collected at each visit as described in detail by others (Stroup et al., 2003).
Since follow-up on subjects was not done at uniform time intervals, analysis was done using the last observation for each patient in treatment Phase I of the trial as the measure of response (last observation carried forward, LOCF). Main effect and interaction terms between the SULT4A1-1 haplotype and drug therapy were included in the linear model. A pre-determined set of contrasts for differences in percent change PANSS by haplotype within each drug therapy (three comparisons) and by drug therapy within each haplotype (six comparisons) were evaluated, with adjustment for multiple-comparisons using the step-up false-discovery rate (FDR) controlling procedure (Benjamini and Hochberg, 1995). A sub-analysis omitting those patients who were randomized to the same antipsychotic drug therapy was also conducted.

[3] = system: Caucasian schizophrenia patients; experiment: CATIE: hospitalization due to exacerbation of psychosis by SULT4A1-1 status; assay type: in vivo, human
Excerpt: To assess if SULT4A1-1 status impacts the risk of hospitalization in Caucasians, the inventors assigned SULT4A1-1 status to each CATIE subject and evaluated hospitalization events due to exacerbation of psychosis. For this analysis, the inventors assigned a dichotomous value (positive or negative) for hospitalization status to subjects in each phase of the trial based on only the first hospitalization event for a given patient in that phase. Patients participating in Phases 1, 2, and/or 3 were included in the totals for the appropriate drug.
A Kaplan-Meier survival analysis was performed to determine whether there was a difference between the survival (hospitalization) rates for the SULT4A1-1 negative and SULT4A1-1 positive patient populations treated with each of the atypical antipsychotics. Survival plots model the fraction of the population that survived (i.e., no hospitalization event) as a function of time.

[4] = system: Caucasian schizophrenia patients; experiment: CATIE: time to discontinuation for all causes by SULT4A1-1 status; assay type: in vivo, human
Excerpt: The primary endpoint for the CATIE study was time to discontinuation for all causes (Lieberman et al., 2005). Thus the inventors evaluated the effect of SULT41-1 status on this important parameter.

[5] = system: schizophrenia patients; experiment: CATIE: months of successful treatment measured by the CGI scale (TMSUCC1); assay type: in vivo, human
Excerpt: The CATIE clinical data set included Clinical Global Impression (CGI) Scale, an observer-provided assessment of the psychiatric health of the patient (Stroup et al., 2003; Guy 1976). Patients are rated with the CGI Scale from 1 to 7, with higher scores indicating greater severity of illness. The CATIE study provided a response variable that measured the time (in months) of successful treatment as measured by the CGI scale (“TMSUCC1” in the CATIE data).

[6] = system: unsegmented patient populations; details: cited from earlier work
[7] = SULT4A1-1 positive, randomized to a different drug
[8] = Unsegmented, Phases 1, 2 and/or 3, first event

Compound	Responders ([1]; SULT4A1-1 negative) [%]	Number of individuals with change in total PANSS ≦−20% (responders) ([1]; SULT4A1-1 negative)	Number of individuals with change in total PANSS ≧−20% (non-responders) ([1]; SULT4A1-1 negative)	Responders ([1]; SULT4A1-1 positive) [%]	Number of individuals with change in total PANSS ≦−20% (responders) ([1]; SULT4A1-1 positive)	Number of individuals with change in total PANSS ≧−20% (non-responders) ([1]; SULT4A1-1 positive)	DELTA PANSS % (mean change in PANSS score from baseline to LOCF) ([2]; SULT4A1-1 negative)	Number of individuals with change in total PANSS ≦−20% (responders) ([2]; SULT4A1-1 negative)	Number of individuals with change in total PANSS ≧−20% (non-responders) ([2]; SULT4A1-1 negative)	Responders ([2]; SULT4A1-1 negative) [%**]	DELTA PANSS % (mean change in PANSS score from baseline to LOCF) ([2]; SULT4A1-1 positive)	Number of individuals with change in total PANSS ≧−20% (non-responders) ([2]; SULT4A1-1 positive)	Number of individuals with change in total PANSS ≦−20% (responders) [2, 7]	Responders ([2]; SULT4A1-1 positive) [%]	Effect size: olanzapine SULT4A1-1+ vs comparator group [2]	Mean difference (95% CI) in delta PANSS: olanzapine SULT4A1-1+ minus comparator group [2]	HOSP, number of patients hospitalized ([3]; SULT4A1-1 negative)	HOSP, rate of hospitalization ([3]; SULT4A1-1 negative) [%]	HOSP, number of patients hospitalized ([3]; SULT4A1-1 positive)	HOSP, rate of hospitalization ([3]; SULT4A1-1 positive) [%]	further results
OCCN1CCN(CCCN2c3ccccc3Sc3ccc(Cl)cc32)CC1 [Perphenazine]	27.0	10	27	0	0	2	−3*** %	16	47	25.4	−10* %	9	5	35.7	0.68	−14.2 (−29.8 to 1.4)	9	13.4	1	7.1	HOSP, rate of hospitalization ([3]; Unsegmented): 12.3%; HOSP, number of patients hospitalized [3, 8]: 10; Time to discontinuation, mean ([4]; SULT4A1-1 negative): 10.6* Months; Time to discontinuation, mean ([4]; SULT4A1-1 positive): 7.6** Months; Length of successful treatment (CGI Months), Mean ([5]; SULT4A1-1 negative): 7.03 Months; Length of successful treatment (CGI Months), Mean ([5]; SULT4A1-1 positive): 5.29 Months; Length of successful treatment (CGI Months), Mean ([5]; Unsegmented): 6.72 Months
O=C1Cc2cc(CCN3CCN(c4nsc5ccccc45)CC3)c(Cl)cc2N1 [Ziprasidone]	15.4	4	22	0	0	3	−4*** %	6	32	15.7	−8* %	7	3	30.0	0.77	−16.1 (−32.7 to 0.5)	11	13.4	2	7.1	Mean difference in total PANSS score between olanzapine and labelled drug, CATIE SULT4A1-1+ ([2]; SULT4A1-1+): −17.9; Mean difference in total PANSS score between olanzapine and labelled drug, CATIE SULT4A1-1− ([2]; SULT4A1-1−): −2.1; Mean difference in total PANSS score between olanzapine and labelled drug, CATIE unsegmented ([2]; Unsegmented): −4.9; Effect Size attributable to SULT4A1-1 status in CATIE ([2]; olanzapine-treated SULT4A1-1 positive versus labelled drug-treated SULT4A1-1 positive): −0.77^b; Effect Size vs. FGA ([6]; first generation antipsychotics, Davis et al. (2003)): −0.04; Effect Size vs. Placebo ([6]; meta-analysis, Leucht et al. (2009), negative = greater reduction in PANSS): −0.48; Mean difference in total PANSS score between olanzapine and labelled drug, Meta-analysis ([6]; unsegmented populations, Leucht et al. (2009)): −8.3; HOSP, rate of hospitalization ([3]; Unsegmented): 11.8%; HOSP, number of patients hospitalized [3, 8]: 13; Kaplan-Meier: difference between survival (no hospitalization) rates of SULT4A1-1 negative and positive patients ([3]; per drug): not statistically significant; Time to discontinuation, mean ([4]; SULT4A1-1 negative): 8.2*** Months; Time to discontinuation, mean ([4]; SULT4A1-1 positive): 11.7 Months; Length of successful treatment (CGI Months), Mean ([5]; SULT4A1-1 negative): 4.51 Months; Length of successful treatment (CGI Months), Mean ([5]; SULT4A1-1 positive): 8.36^d Months; Length of successful treatment (CGI Months), Mean ([5]; Unsegmented): 5.36 Months
